Measured values: paper PMC10426190 (Breast Cancer Research : BCR, 2023)
Like-named read-outs stand apart in the source and are kept apart here.

How the values were obtained:
[1] = test system: MCF-7 subcutaneous tumors; test: MCF-7 subcutaneous xenograft, combination with Palbociclib; type: in vivo, mouse; conditions: MCF-7 sc, Palbociclib 40 mg/kg monotherapy
Method: Female Balb/c nude mice were used for MCF-7 and T47D tumor subcutaneous xenograft studies. At least one day before tumor cell implantation, estrogen pellets (0.18 mg, 17β-Estradiol, 60-day release, Innovative Research of America, Sarasota, FL, USA) were implanted subcutaneously. Each mouse was subcutaneously injected with 1 × 10^7 MCF-7 (ECACC) or T47D cells in the right flank, and tumor growth was monitored. The long diameter (a) and the short diameter (b) of the tumor were measured using a caliper, and the tumor volume was calculated using the following formula: V = 0.5 × a × b^2. […] Tumor volumes were evaluated twice per week. Treatment tolerability was assessed by body weight measurements and frequent observation for clinical signs of treatment-related adverse effects.
(§1) Statistical and graphical presentations were performed using IDBS XLfit and GraphPad Prism 9. For cell proliferation assays, the IC50 was calculated by fitting a dose–response curve using a nonlinear regression model with a log(inhibitor) vs response curve fit. […] P-values < 0.05 were considered statistically significant.
Cell viability was measured using Cell TiterGlo assay. […] The result of one representative assay from three similar independent experiments is shown.

[2] = Brain distribution study in mice; conditions: oral 10 mg/kg once a day (fulvestrant 250 mg/kg sc once per week), 24 h post last dose
Method: The blood and brain tissues were collected at 24 h post the last dose. […] All blood was collected in K2-EDTA tubes and plasma was obtained by centrifuging the blood at 3200 rpm for 10 min at 4 °C and the brain was rinsed with water and blotted to remove superficial meninges. Plasma and brain samples were stored at − 80 °C until LC–MS/MS analysis which was performed on an Acquity UPLC system (Waters, USA) coupled to an AB SCIEX Triple Quad 6500 + System.
Brain conc./plasma conc. was presented as a B/P ratio

[3] = design: method as in PMID 30018387; conditions: cited from earlier work
[4] = design: method as in PMID 26149830; conditions: mice, 30 mg/kg, approximately 12 h ref 38; cited from earlier work
ERα [5] = biological target: T1, ERα (Homo sapiens, UniProt P03372); test: ERα degradation assay, In-Cell Western, MCF-7 WT; type: cell-based; design: MCF-7 wild type and Y537S mutant cells were seeded at a density of 5000 cells per well; host or cells: MCF-7; conditions: 24 h
T1 sequence (P03372 1-595): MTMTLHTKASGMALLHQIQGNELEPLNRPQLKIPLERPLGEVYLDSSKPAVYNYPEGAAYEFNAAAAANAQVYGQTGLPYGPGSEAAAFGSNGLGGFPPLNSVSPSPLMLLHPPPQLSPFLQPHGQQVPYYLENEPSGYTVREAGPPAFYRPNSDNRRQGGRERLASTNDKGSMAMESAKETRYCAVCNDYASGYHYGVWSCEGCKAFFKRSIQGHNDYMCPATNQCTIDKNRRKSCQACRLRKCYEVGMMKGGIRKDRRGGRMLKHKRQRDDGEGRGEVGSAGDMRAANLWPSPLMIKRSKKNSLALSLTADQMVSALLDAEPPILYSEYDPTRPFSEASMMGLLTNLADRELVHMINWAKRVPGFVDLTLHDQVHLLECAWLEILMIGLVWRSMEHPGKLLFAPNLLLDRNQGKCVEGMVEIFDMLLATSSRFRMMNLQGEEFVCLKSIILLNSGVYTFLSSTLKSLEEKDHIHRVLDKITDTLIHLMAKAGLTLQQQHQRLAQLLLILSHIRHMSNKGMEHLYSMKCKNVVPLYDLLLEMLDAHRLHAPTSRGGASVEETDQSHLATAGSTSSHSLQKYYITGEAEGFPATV
Method: MCF-7 wild type and Y537S mutant cells were seeded at a density of 5000 cells per well into flat clear bottom tissue cultured-treated 384-well plates (Greiner) in culture media and after overnight incubation cells were treated with compounds for 24 h. Then plates were fixed with 4% formaldehyde, permeabilized with ice-cold methanol, and blocked with Odyssey Blocking Buffer (LI-COR). The fixed cells were incubated with rabbit anti- ERα antibody (CST#8644S) and mouse anti-GAPDH antibody (Abcam #ab8245), washed and stained with IRDye 800 Goat anti-Rabbit IgG (Licor#926-32211) and IRDye 680 Goat anti-Mouse IgG (Licor#926-68070). ERα levels were quantitated using Sapphire RGBNIR (Azure), the acumen eX3 imaging system. […] IC50 and Emax were analyzed with IDBS XLfit.
(§2) MCF7 cells were seeded in a 384-well plate and linear-dilution compounds were administrated in duplicate for each treatment. After incubation for 24 h, Cells in the assay pate were treated as described in methods. ERα levels were quantified by immunofluorescence assay. […] Cells were dispended into 96-well plates and incubated for 24 h with compounds (100 nM) treatment. […] Cells were seeded in 384-well plates and treated with linear-dilution compounds for 7 days of incubation. Cell viability was assessed using CellTiter-Glo. Cell growth inhibition is presented as a percentage of CellTiterGlo activity relative to the vehicle control. […] Then cells in each well were collected and the targeting proteins in lysate supernatant were detected by WB
Cells were seeded at a density of 5,000 cells per well into 384-well plates and treated with linear-titration compounds in duplicate for 24 hours. ERα levels were quantified by immunofluorescence assay as described in the method. The detection signals were captured by Odyssey.

MCF-7 WT cells = test: Viability assay (CellTiter-Glo, 7 days), MCF-7 WT; type: cell-based, human
Method: (§3) Trypsinized cells were dispensed into 384-well plates in culture media and after overnight incubation cells were treated with compounds for 7 days. Cell viability was assessed using CellTiter-Glo (Promega) according to the manufacturer’s protocol and relative luminescence units (RLU) were measured using an Envision Multilabel Reader (Perkin Elmer). […] IC50 and Imax were analyzed with IDBS XLfit.
as §1

uterine tissue = test: Assessment of uterotropic activity in juvenile rats; type: in vivo, rat; conditions: juvenile SD rats, oral QD x 3 days; tamoxifen 60 mg/kg, SCR-6852 10 mg/kg; vs vehicle
Method: Twenty-four hours after the final dose, all animals were euthanized. Body weights and wet uterine weights were recorded for each animal. Fresh uterine tissue from each rat was fixed in 4% paraformaldehyde, dehydrated by HistoCore PEARL (Leica), and embedded by HistoCore Arcadia H + HistoCore Arcadia C (Leica). Sections were cut at 4 μm and stained with 0.1% toluidine blue O. The thickness of endometrial epithelium was measured using Leica Aperio CS2 with ImageScope × 64 program (Leica). The mean of five measurements per specimen was calculated.
MCF7 with hormone-deprived pre-treatment were administrated ER ligands or not present with 1 nM E2 stimulation for 24 h incubation in a 12-well plate. Total mRNA was isolated from treated cells and sequenced on an Illumina HiSeq X Ten platform. FPKM of each gene was calculated using Cufflinks and Differential expression genes analysis by using the DESeq (2012) R package. Four separate clusters were obtained. […] T47D EFM-19 and HCC1500 cells were grown in RPMI media supplemented with 10% charcoal-stripped FBS for 14 days and then treated with ER antagonist (1 μM) or DMSO in the presence E2 (1nM) stimulation for 24 h before RNA isolation and gene expression analysis as described in methods. […] Endometrial height was assessed from the basement membrane to the luminal border (scale bar in green lines: 200 μm), Arrows indicate the uterine epithelium (e).

breast cancer = test system: breast cancer; design: method as in PMID 28149048; conditions: cited from earlier work
[6] = test system: ER+ breast cancer, WT or mutant ESR1; design: method as in EMERALD (NCT03778931), ASCO, 2022; conditions: ASCO, 2022, cited from earlier work
intracranial tumor = conditions: cited from earlier work
[7] = test system: ER + breast cancer cell lines; test: Proliferation assay across ER-positive cell panel; type: cell-based, human; conditions: CAMA-1 and HCC1500, 7 days
Method: as §3
MCF7 cells were seeded in a 384-well plate and linear-dilution compounds were administrated in duplicate for each treatment. After incubation for 24 h, Cells in the assay pate were treated as described in methods. ERα levels were quantified by immunofluorescence assay. […] Data are given as mean ± SEM. b The maximal ERα degradation across an ER-positive cell panel was evaluated in an In-cell Western assay. Cells were dispended into 96-well plates and incubated for 24 h with compounds (100 nM) treatment. […] Cells were seeded in 384-well plates and treated with linear-dilution compounds for 7 days of incubation. Cell viability was assessed using CellTiter-Glo. Cell growth inhibition is presented as a percentage of CellTiterGlo activity relative to the vehicle control. […] WT (e) and ER. Y537S cells (f). […] Then cells in each well were collected and the targeting proteins in lysate supernatant were detected by WB

ERα [8] = biological target: T1, ERα; test: Maximal ERα degradation across ER-positive cell panel, In-cell Western, 100 nM; type: cell-based; conditions: 24 h, EFM-19, CAMA-1, HCC1500, T47D, BT-474
Method: as §2

## CC(=O)c1c(C)c2cnc(Nc3ccc(N4CCNCC4)cn3)nc2n(C2CCCC2)c1=O [Palbociclib]
[1]
  TGI: 66.34%

## C[C@@H]1Cc2c([nH]c3ccccc23)[C@@H](c2c(F)cc(NC3CN(CCCF)C3)cc2F)N1CC(F)(F)CO [GDC-9545]
[2]
  B/P ratio: less than onefold

## Nc1cc(C(F)(F)F)c(-c2cc(N3CCOCC3)nc(N3CCOCC3)n2)cn1 [Buparlisib]
[3]
  B/P ratio: > 1.5

## CCN1CCN(Cc2ccc(Nc3ncc(F)c(-c4cc(F)c5nc(C)n(C(C)C)c5c4)n3)nc2)CC1 [Abemaciclib]
[4]
  target engagement ratio (unbound brain concentration to in vitro enzyme IC50): 3.3–14.3

## CC1Cc2cc(B(O)O)ccc2C(c2c(F)cc(NC3CN(CCCF)C3)cc2F)N1CC1(F)CC1 (centres unmarked) [SCR-6515]
ERα [5]
  DC50: 0.08 nM
  ERα degradation assay Dmax [% Ful.]: 97.83 % Ful.
  ERα degradation assay Dmax [% Veh.]: 66.81 % Veh.
MCF-7 WT cells
  IC50: 0.29 nM
  Viability assay Emax [% Ful.]: 103.00 % Ful.
  Viability assay Emax [% Veh.]: 64.15 % Veh.

## CC/C(=C(\c1ccccc1)c1ccc(OCCN(C)C)cc1)c1ccccc1 [Tamoxifen]
Uterine tissue
  endometrial epithelial thickness: significantly increased
  relative uterine wet weight: significant increase
Breast cancer
  reduction of annual mortality rate: 31%
  reduction of breast cancer recurrence: 50%

## CCNCCc1ccc(CN(CC)c2cc(OC)ccc2[C@@H]2CCc3cc(O)ccc3C2)cc1 [Elacestrant]
[6]; ESR1 mutation population ref EMERALD (NCT03778931)
  PFS rate at 12 months: 26.76%
[6]; all patients ref EMERALD (NCT03778931)
  reduction of the risk of disease progression or death: 30%
[6]; overall population ref EMERALD (NCT03778931)
  PFS rate at 12 months: 22.32%
[6]; patients with ESR1 mutation ref EMERALD (NCT03778931)
  reduction of the risk of disease progression or death: 45%
Intracranial tumor; day 54 ref 41
  animals survived to the end of the study: 43%
Intracranial tumor; intracranial tumor, according to reported data ref 41
  B/P ratio: about 0.6

## C[C@@H]1Cc2c([nH]c3ccccc23)[C@@H](c2c(F)cc(/C=C/C(=O)O)cc2F)N1CC(C)(C)F [AZD9496]
[7]
  maximal anti-proliferation rate: lower maximal anti-proliferation rate
ERα [8]
  maximal ERα degradation rate across ER + cell lines: less potency ERα degradation rate

## C[C@@H]1Cc2c(ccc3[nH]ncc23)[C@@H](c2ccc(NC3CN(CCCF)C3)cn2)N1CC(F)(F)F [AZD-9833]
[2]
  B/P ratio: less than onefold
